Results as given in patent US20080095790A1, “Methods of Treating Prostate Cancer” (priority 2006, published 2008).

Columns and labels:
[1] = system: PSA-peptide tetramer+CD8+ cells; assay: PSA-peptide-HLA-A2 tetramer analysis of PBMC from vaccinated patients; assay type: in vivo, human; conditions: out of 28 patients (50%), week 26 and/or week 52
[2] = DTH skin testing with PSA-peptide; assay type: in vivo, human
Procedure: A total of 28 patients were vaccinated with PSA-peptide at three time points, i.e., weeks 1, 4 and 10 and DTH skin testing was performed on weeks 4, 14, 26 and 52.

DTH-derived T-cells = assay: Cytokine bead array (CBA) of DTH-derived T-cells cultured with peptide-pulsed T2 cells; assay type: cell-based, human
Procedure: Out-growth of T-cells was observed within 3 days. On day 4, 500 μl of the spent medium was aspirated and replenished with fresh medium plus IL-2 and cultured further for a total of 6-8 days, until the culture wells became confluent. […] Each cycle of stimulation was 7±1 days. Cytokines released into the culture supernatant, including IFN-γ, TNF-α, IL-4, IL-6 and IL-10, were measured concurrently by cytokine bead array (CBA) analysis (BD Biosciences, San Diego, Calif.). The antigen presenting cell line, T2 (ATCC, Manassas, Va.) was used as a stimulator and was pulsed with 20 μg/ml of PSA-peptide or control HLA-A2 binding peptide, HIV-RT476-484 or diluent alone (0.4% volume by volume). T2 cells (25,000/well) were cultured with DTH-derived T-cells (100,000/well) in complete medium containing 30 U/ml of IL-2 in a total volume of 1 ml per well in 48-well plates. […] Cells were incubated at 37° C. for 24 hours in 5% CO2 atmosphere. Supernatants were harvested and stored in sterile vials at −80° C. At the time of assay, samples were thawed and cytokines were measured using a CBA kit as per the manufacturer's protocol with a FACSCalibur flow cytometer (Becton Dickinson, Mountain View, Calif.).

T2 cells = assay: Chromium release assay (CRA), 4 hour; assay type: cell-based, human
Procedure: Specific cytolytic activity was analyzed by standard 4 hour CRA as previously described (Xue et al., (1997) Prostate 30:73). […] Supernatants recovered from CRA were assayed for gamma emission using a Top-count NXT scintillation counter (Packard, Meriden, Conn.) and the percent specific lysis was calculated as previously described (Xue et al., (1997) Prostate 30:73).

[3] = 6 out of 7 patients, after 1-3 cycles in vitro stimulation with PSA-peptide
[4] = four patients, after 1-3 cycles in vitro stimulation

KLQCVDLHV (listed as Homo sapiens) [PSA-peptide]
patients who developed ≧4 fold increases in CD8+ PSA-peptide specific tetramer cells [1]: 14 patients
DTH induration with increasing doses of peptide ([2]; 1 to 20 μg peptide, responding patients): increasing level of DTH induration
patients who developed positive DTH responses to PSA-peptide over time ([2]; of 28 patients (fifty percent), DTH testing weeks 4, 14, 26, 52): 14 patients
specific IFN-γ responses, median (DTH-derived T-cells; [3]): 163 pg/mL
specific IFN-γ responses, range over patients (DTH-derived T-cells; [3]): 85 to 1030 pg/mL
specific levels of IL-4, range over patients (DTH-derived T-cells; [4]): 18 to 486 pg/mL
specific levels of TNF-α, median (DTH-derived T-cells; [4]): 38 pg/mL
specific levels of TNF-α, range over patients (DTH-derived T-cells; [4]): 23 to 96 pg/mL
IL-6 expression (DTH-derived T-cells; one patient (UPIN 49)): Non-specific expression
patients whose DTH-derived T-cells showed specific IFN-γ responses (DTH-derived T-cells; out of 7 patients): 6 patients
cytokine responses against T2 cells pulsed with PSA-peptide compared to HIV-RT476-484 or no peptide (DTH-derived T-cells; patient UPIN55, cycle 0, without peptide priming in vitro): specific cytokine responses
lysis of PSA-peptide-pulsed T2 cells by sorted CD4−CD8+ T-cells, compared to HIV-RT476-484 or no peptide (T2 cells; 4 patients, 1-4 cycles in vitro stimulation): peptide-specific lysis
cytolytic activity of induced T-cells (T2 cells; patient UPIN40): modest cytolytic activity
cytolytic activity of induced T-cells (T2 cells; patients UPIN45, UPIN 55, UPIN 49): strongly cytolytic
